The subject of the assay is MV-4-11 cells. Briefly: Gene expression microarray analysis (Affymetrix PrimeView) and GSEA. In kind it is cell-based, human. The arrangement: RFU PODN (11730768_x_at) / Fold change /veh PODN (11730768_x_at) / RFU LINC00158 (11744669_a_at) / Fold change /veh LINC00158 (11744669_a_at) / RFU DUSP10 (11751237_a_at) / Fold change /veh DUSP10 (11751237_a_at) / RFU ID3 (11757404_x_at) / Fold change /veh ID3 (11757404_x_at) / RFU PLEKHG5 (11737974_s_at) / Fold change /veh PLEKHG5 (11737974_s_at) / RFU LRRC4B (11730491_at) / Fold change /veh LRRC4B (11730491_at) / RFU GIMAP4 (11747438_a_at) / Fold change /veh GIMAP4 (11747438_a_at) / RFU KRT8 (11758183_x_at) / Fold change /veh KRT8 (11758183_x_at) / RFU CNN1 (11734310_a_at) / Fold change /veh CNN1 (11734310_a_at) / RFU VPS37D (11726825_at) / Fold change /veh VPS37D (11726825_at) / RFU C10orf10 (11716522_x_at) / Fold change /veh C10orf10 (11716522_x_at) / RFU KIR2DL2 /// KIR2DL4 /// KIR2DL5A /// KIR2DL5B /// KIR2DS1 /// KIR2DS2 /// KIR2DS3 /// KIR2DS4 /// KIR3DL3 /// KIR3DL3 /// KIR3DS1 (11738374_at) / Fold change /veh KIR2DL2 /// KIR2DL4 /// KIR2DL5A /// KIR2DL5B /// KIR2DS1 /// KIR2DS2 /// KIR2DS3 /// KIR2DS4 /// KIR3DL3 /// KIR3DL3 /// KIR3DS1 (11738374_at) / RFU C1QL1 (11718748_at) / Fold change /veh C1QL1 (11718748_at) / RFU TMPRSS4 (11747572_a_at) / Fold change /veh TMPRSS4 (11747572_a_at) / RFU HAMP (11756126_x_at) / Fold change /veh HAMP (11756126_x_at) / RFU RNFT2 (11725882_a_at) / Fold change /veh RNFT2 (11725882_a_at) / RFU NR4A2 (11747474_a_at) / Fold change /veh NR4A2 (11747474_a_at) / RFU ABCC12 (11746883_a_at) / Fold change /veh ABCC12 (11746883_a_at) / RFU TMEM136 (11760407_x_at) / Fold change /veh TMEM136 (11760407_x_at) / RFU CLDN22 /// WWC2 (11732394_at) / Fold change /veh CLDN22 /// WWC2 (11732394_at) / RFU HLA-DPB1 (11760878_x_at) / Fold change /veh HLA-DPB1 (11760878_x_at) / RFU SPINT1 (11716480_a_at) / Fold change /veh SPINT1 (11716480_a_at) / RFU GAP43 (11754022_s_at) / Fold change /veh GAP43 (11754022_s_at) / RFU A4GNT (11735810_at) / Fold change /veh A4GNT (11735810_at) / RFU PRB3 (11715151_x_at) / Fold change /veh PRB3 (11715151_x_at) / RFU TUBB4B (11761932_at) / Fold change /veh TUBB4B (11761932_at) / RFU CAPN14 (11732068_a_at) / Fold change /veh CAPN14 (11732068_a_at) / RFU TMCC2 (11721928_a_at) / Fold change /veh TMCC2 (11721928_a_at) / RFU IRGQ (11745062_a_at) / Fold change /veh IRGQ (11745062_a_at) / RFU FAM174B (11720279_a_at) / Fold change /veh FAM174B (11720279_a_at) / RFU TMPRSS4 (11748680_a_at) / Fold change /veh TMPRSS4 (11748680_a_at) / RFU FAM212B (11763350_a_at) / Fold change /veh FAM212B (11763350_a_at) / RFU PLEKHG5 (11743358_a_at) / Fold change /veh PLEKHG5 (11743358_a_at) / RFU ZSCAN30 (11745921_a_at) / Fold change /veh ZSCAN30 (11745921_a_at) / RFU CMKLR1 (11741424_a_at) / Fold change /veh CMKLR1 (11741424_a_at) / RFU LOC101060620 /// MAPK8IP1 (11723275_at) / Fold change /veh LOC101060620 /// MAPK8IP1 (11723275_at) / RFU SPTSSB (11747773_x_at) / Fold change /veh SPTSSB (11747773_x_at) / RFU PRSS12 (11739890_at) / Fold change /veh PRSS12 (11739890_at) / RFU BIN1 (11741810_x_at) / Fold change /veh BIN1 (11741810_x_at) / RFU WNT11 (11732464_a_at) / Fold change /veh WNT11 (11732464_a_at) / RFU C10orf10 (11716521_a_at) / Fold change /veh C10orf10 (11716521_a_at) / RFU C5orf56 (11738089_at) / Fold change /veh C5orf56 (11738089_at) / RFU CYB561 (11721691_x_at) / Fold change /veh CYB561 (11721691_x_at) / RFU ANKRD19P (11752326_a_at) / Fold change /veh ANKRD19P (11752326_a_at) / RFU OR2T12 /// OR2T33 /// OR2T8 (11738714_s_at) / Fold change /veh OR2T12 /// OR2T33 /// OR2T8 (11738714_s_at) / RFU VCAN (11748164_a_at) / Fold change /veh VCAN (11748164_a_at) / RFU JSRP1 (11732532_at) / Fold change /veh JSRP1 (11732532_at) / RFU KRTAP10-11 (11738290_x_at) / Fold change /veh KRTAP10-11 (11738290_x_at) / RFU MYO3A (11730013_a_at) / Fold change /veh MYO3A (11730013_a_at) / RFU EBF3 (11725865_a_at) / Fold change /veh EBF3 (11725865_a_at) / RFU CAMK2N1 (11719241_x_at) / Fold change /veh CAMK2N1 (11719241_x_at) / RFU C5orf56 (11738088_a_at) / Fold change /veh C5orf56 (11738088_a_at) / RFU OLFML3 (11715873_a_at) / Fold change /veh OLFML3 (11715873_a_at) / RFU LOC100653217 /// NTM (11731650_a_at) / Fold change /veh LOC100653217 /// NTM (11731650_a_at) / RFU MAPK11 (11762145_a_at) / Fold change /veh MAPK11 (11762145_a_at) / RFU FIZ1 (11724087_x_at) / Fold change /veh FIZ1 (11724087_x_at) / RFU OASL (11726364_x_at) / Fold change /veh OASL (11726364_x_at) / RFU SOX15 (11748057_x_at) / Fold change /veh SOX15 (11748057_x_at) / RFU CD79A (11719716_a_at) / Fold change /veh CD79A (11719716_a_at) / RFU HIST1H1D (11736915_at) / Fold change /veh HIST1H1D (11736915_at) / RFU CASKIN2 (11723855_a_at) / Fold change /veh CASKIN2 (11723855_a_at) / RFU LOC730098 (11760151_x_at) / Fold change /veh LOC730098 (11760151_x_at) / RFU OR4N2 (11742367_at) / Fold change /veh OR4N2 (11742367_at) / RFU PRRT2 (11749266_a_at) / Fold change /veh PRRT2 (11749266_a_at) / RFU SNX32 (11753110_a_at) / Fold change /veh SNX32 (11753110_a_at) / RFU CDHR5 (11726645_a_at) / Fold change /veh CDHR5 (11726645_a_at) / RFU RCAN1 (11760418_a_at) / Fold change /veh RCAN1 (11760418_a_at) / RFU FAM167A (11723789_a_at) / Fold change /veh FAM167A (11723789_a_at) / RFU FAM26E (11764081_at) / Fold change /veh FAM26E (11764081_at) / RFU ISYNA1 (11749810_s_at) / Fold change /veh ISYNA1 (11749810_s_at) / RFU ACY1 (11761880_at) / Fold change /veh ACY1 (11761880_at) / RFU 11764098_at / Fold change /veh 11764098_at / RFU SAMD14 (11745864_x_at) / Fold change /veh SAMD14 (11745864_x_at) / RFU NPB (11741838_a_at) / Fold change /veh NPB (11741838_a_at) / RFU TMPRSS6 (11731388_a_at) / Fold change /veh TMPRSS6 (11731388_a_at) / RFU KRTAP10-2 (11738614_at) / Fold change /veh KRTAP10-2 (11738614_at) / RFU ARHGAP8 /// PRR5-ARHGAP8 (11727945_x_at) / Fold change /veh ARHGAP8 /// PRR5-ARHGAP8 (11727945_x_at) / RFU KRTAP5-7 /// NADSYN1 (11734609_at) / Fold change /veh KRTAP5-7 /// NADSYN1 (11734609_at) / RFU RASL12 (11751679_a_at) / Fold change /veh RASL12 (11751679_a_at) / RFU CDKN2B (11736163_a_at) / Fold change /veh CDKN2B (11736163_a_at) / RFU PRF1 (11729649_at) / Fold change /veh PRF1 (11729649_at) / RFU, ZNF638 /// ZNF638-IT1 / Fold change vs veh, ZNF638 /// ZNF638-IT1 / RFU, PANK3 / Fold change vs veh, PANK3 / RFU, SH3YL1 / Fold change vs veh, SH3YL1 / RFU, ZEB2 / Fold change vs veh, ZEB2 / RFU, NRIP1 / Fold change vs veh, NRIP1 / RFU, PTTG1IP / Fold change vs veh, PTTG1IP / RFU, CAPN2 / Fold change vs veh, CAPN2 / RFU, MED14 / Fold change vs veh, MED14 / RFU, SNORA58 / Fold change vs veh, SNORA58 / RFU, C1orf63 / Fold change vs veh, C1orf63 / RFU, LRRFIP1 / Fold change vs veh, LRRFIP1 / RFU, NDUFAF7 / Fold change vs veh, NDUFAF7 / RFU, SLC12A2 / Fold change vs veh, SLC12A2 / RFU, IBTK / Fold change vs veh, IBTK / RFU, ESF1 / Fold change vs veh, ESF1 / Fold change vs veh, TMEM50B / RFU, TAOK1 / Fold change vs veh, TAOK1 / RFU, ACBD3 / Fold change vs veh, ACBD3 / RFU, TMA16 / Fold change vs veh, TMA16 / RFU, RWDD3 / Fold change vs veh, RWDD3 / RFU, BCAT1 / Fold change vs veh, BCAT1 / RFU, EDEM3 / Fold change vs veh, EDEM3 / RFU, TMEM33 / Fold change vs veh, TMEM33 / RFU, WDR75 / Fold change vs veh, WDR75 / RFU, AHCTF1 / Fold change vs veh, AHCTF1 / RFU, TFRC / Fold change vs veh, TFRC / RFU, ZDHHC17 / Fold change vs veh, ZDHHC17 / RFU, NOM1 / Fold change vs veh, NOM1 / RFU, ARL8B / Fold change vs veh, ARL8B / RFU, ZBTB11 / Fold change vs veh, ZBTB11 / RFU, TAMM41 / Fold change vs veh, TAMM41 / RFU, KIAA1704 /// LOC100996395 / Fold change vs veh, KIAA1704 /// LOC100996395 / RFU, ING1 / Fold change vs veh, ING1 / RFU, TRMT61B / Fold change vs veh, TRMT61B / RFU, FUBP3 / Fold change vs veh, FUBP3 / RFU, TP53 / Fold change vs veh, TP53 / RFU, TNKS2 / Fold change vs veh, TNKS2 / RFU, ZFP14 / Fold change vs veh, ZFP14 / RFU, ACTR2 / Fold change vs veh, ACTR2 / RFU, PPP3R1 / Fold change vs veh, PPP3R1 / RFU, PIK3R1 / Fold change vs veh, PIK3R1 / RFU, HNRNPA1 / Fold change vs veh, HNRNPA1 / RFU, RNF170 / Fold change vs veh, RNF170 / RFU, ZNF28 / Fold change vs veh, ZNF28 / RFU, RNGTT / Fold change vs veh, RNGTT / RFU, OGT / Fold change vs veh, OGT / RFU, BRD1 / Fold change vs veh, BRD1 / RFU, MARS / Fold change vs veh, MARS / RFU, ZNF655 / Fold change vs veh, ZNF655 / RFU, FAHD1 / Fold change vs veh, FAHD1 / RFU, BDP1 / Fold change vs veh, BDP1 / RFU, LRRCC1 / Fold change vs veh, LRRCC1 / RFU, ARID1A / Fold change vs veh, ARID1A / RFU, ZNF146 / Fold change vs veh, ZNF146 / RFU, ZNF330 / Fold change vs veh, ZNF330 / RFU, GPN3 / Fold change vs veh, GPN3 / RFU, C9orf123 / Fold change vs veh, C9orf123 / RFU, N4BP2L2 / Fold change vs veh, N4BP2L2 / RFU, ARFIP1 / Fold change vs veh, ARFIP1 / RFU, FAM179B / Fold change vs veh, FAM179B / RFU, BCL10 / Fold change vs veh, BCL10 / RFU, UHRF1BP1L / Fold change vs veh, UHRF1BP1L / RFU, BET1 / Fold change vs veh, BET1 / RFU, CNOT2 / Fold change vs veh, CNOT2 / RFU, ZNF268 / Fold change vs veh, ZNF268 / Fold change vs veh, ZNF507 / RFU, DGCR2 / Fold change vs veh, DGCR2 / RFU, WDSUB1 / Fold change vs veh, WDSUB1 / Fold change vs veh, HSP90B1 /// MIR3652 / RFU, ADSS / Fold change vs veh, ADSS / RFU, GK / Fold change vs veh, GK / RFU, ZNF148 / Fold change vs veh, ZNF148 / RFU, TAF9 / Fold change vs veh, TAF9 / RFU, SLC1A5 / Fold change vs veh, SLC1A5 / RFU, SLMO2 / Fold change vs veh, SLMO2 / RFU, ABCC4 / Fold change vs veh, ABCC4 / RFU, LOC101060439 /// RAP1B / Fold change vs veh, LOC101060439 /// RAP1B / RFU, RFX7 / Fold change vs veh, RFX7 / RFU, GTPBP10 / Fold change vs veh, GTPBP10 / RFU, CNEP1R1 / Fold change vs veh, CNEP1R1 / RFU, BIVM-ERCC5 /// ERCC5 / Fold change vs veh, BIVM-ERCC5 /// ERCC5 / RFU, ILF3 / Fold change vs veh, ILF3 / RFU 11762660_at / Fold change /veh 11762660_at / RFU VCAN (11757783_s_at) / Fold change /veh VCAN (11757783_s_at) / RFU DDX43 (11728927_at) / Fold change /veh DDX43 (11728927_at) / RFU KRT8 (11758188_x_at) / Fold change /veh KRT8 (11758188_x_at) / RFU NKD1 (11759106_at) / Fold change /veh NKD1 (11759106_at) / RFU SRD5A1 (11742802_a_at) / Fold change /veh SRD5A1 (11742802_a_at) / RFU TPSAB1 /// TPSB2 (11721975_s_at) / Fold change /veh TPSAB1 /// TPSB2 (11721975_s_at) / RFU GSTM3 (11746129_a_at) / Fold change /veh GSTM3 (11746129_a_at) / RFU IL23R (11737362_x_at) / Fold change /veh IL23R (11737362_x_at) / RFU TMEM51 (11727254_a_at) / Fold change /veh TMEM51 (11727254_a_at) / RFU PIWIL2 (11732686_x_at) / Fold change /veh PIWIL2 (11732686_x_at) / RFU ORM1 (11744905_x_at) / Fold change /veh ORM1 (11744905_x_at) / RFU CCDC152 (11743942_at) / Fold change /veh CCDC152 (11743942_at) / RFU ECM1 (11717891_a_at) / Fold change /veh ECM1 (11717891_a_at) / RFU IL23R (11748794_a_at) / Fold change /veh IL23R (11748794_a_at) / RFU TNFAIP8L3 (11732012_x_at) / Fold change /veh TNFAIP8L3 (11732012_x_at) / RFU MBOAT4 (11741988_at) / Fold change /veh MBOAT4 (11741988_at) / RFU 11764193_at / Fold change /veh 11764193_at / RFU TMEM53 (11763286_at) / Fold change /veh TMEM53 (11763286_at) / RFU MAGEB2 (11727129_at) / Fold change /veh MAGEB2 (11727129_at) / RFU TMEM200A (11744735_a_at) / Fold change /veh TMEM200A (11744735_a_at) / RFU CCDC152 (11751479_a_at) / Fold change /veh CCDC152 (11751479_a_at) / RFU FAM211A (11726209_a_at) / Fold change /veh FAM211A (11726209_a_at) / RFU RGS16 (11746705_a_at) / Fold change /veh RGS16 (11746705_a_at) / RFU VCAN (11755009_s_at) / Fold change /veh VCAN (11755009_s_at) / RFU RHOB (11743442_s_at) / Fold change /veh RHOB (11743442_s_at) / RFU RGS16 (11720943_a_at) / Fold change /veh RGS16 (11720943_a_at) / RFU RGS16 (11720944_at) / Fold change /veh RGS16 (11720944_at) / RFU, VPS4B / Fold change vs veh, VPS4B / RFU, CREB1 / Fold change vs veh, CREB1 / RFU, DNAJC13 / Fold change vs veh, DNAJC13 / RFU, GNAQ / Fold change vs veh, GNAQ / RFU, CDK5R1 / Fold change vs veh, CDK5R1 / RFU, ZRANB3 / Fold change vs veh, ZRANB3 / RFU, CUL4A / Fold change vs veh, CUL4A / RFU, CCNY / Fold change vs veh, CCNY / RFU, UFL1 / Fold change vs veh, UFL1 / RFU, COG3 / Fold change vs veh, COG3 / RFU, DIAPH2 / Fold change vs veh, DIAPH2 / RFU, SKA2 / Fold change vs veh, SKA2 / RFU, AFF3 / Fold change vs veh, AFF3 / RFU, LMF1 / Fold change vs veh, LMF1 / RFU, IPO11 / Fold change vs veh, IPO11 / RFU, DFFB / Fold change vs veh, DFFB / RFU, FOXP1 / Fold change vs veh, FOXP1 / RFU, CARD8 / Fold change vs veh, CARD8 / RFU, STRN3 / Fold change vs veh, STRN3 / RFU, ADK / Fold change vs veh, ADK / RFU, RASSF2 / Fold change vs veh, RASSF2 / RFU, WIPF1 / Fold change vs veh, WIPF1 / RFU, LARP1B / Fold change vs veh, LARP1B / RFU, RASA1 / Fold change vs veh, RASA1 / RFU, RB1 / Fold change vs veh, RB1 / RFU, PPFIA1 / Fold change vs veh, PPFIA1 / RFU, MAT2A / Fold change vs veh, MAT2A / RFU, CCT5 / Fold change vs veh, CCT5 / RFU, WDR92 / Fold change vs veh, WDR92 / RFU, CUX1 / Fold change vs veh, CUX1 / RFU, TTC7A / Fold change vs veh, TTC7A / RFU, TMEM135 / Fold change vs veh, TMEM135 / RFU, DEPTOR / Fold change vs veh, DEPTOR / RFU, CPM / Fold change vs veh, CPM / RFU, DNAJB6 / Fold change vs veh, DNAJB6 / RFU, CACNA2D3 / Fold change vs veh, CACNA2D3 / RFU, DTX4 / Fold change vs veh, DTX4 / RFU, TFCP2 / Fold change vs veh, TFCP2 / RFU, GMCL1 /// GMCL1P1 / Fold change vs veh, GMCL1 /// GMCL1P1 / RFU, AEBP2 / Fold change vs veh, AEBP2 / RFU, SNHG1 /// SNORD22 /// SNORD25 /// SNORD26 /// SNORD27 /// SNORD28 /// SNORD29 /// SNORD31 / Fold change vs veh, SNHG1 /// SNORD22 /// SNORD25 /// SNORD26 /// SNORD27 /// SNORD28 /// SNORD29 /// SNORD31 / Fold change (Aza/veh), C12orf56 (ProbeSet 11735607_a_at) / Fold change (ACY-1035/veh), C12orf56 (ProbeSet 11735607_a_at) / Fold change (Aza/veh), FGFR1OP (ProbeSet 11751329_s_at) / Fold change (ACY-1035/veh), FGFR1OP (ProbeSet 11751329_s_at) / Fold change (Aza/veh), VPS36 (ProbeSet 11739960_a_at) / Fold change (ACY-1035/veh), VPS36 (ProbeSet 11739960_a_at) / RFU SYPL1 (11715823_x_at) / Fold change /veh SYPL1 (11715823_x_at) / RFU IGFBP7 (11715501_s_at) / Fold change /veh IGFBP7 (11715501_s_at) / RFU REEP3 (11722064_at) / Fold change /veh REEP3 (11722064_at) / RFU IGLL1 (11728026_x_at) / Fold change /veh IGLL1 (11728026_x_at): dose or concentration left out as unconfirmed. The conditions noted are these: ProbeSet 11730252_s_at; LIST B.

In the case of `Nc1ncn([C@@H]2O[C@H](CO)[C@@H](O)[C@H]2O)c(=O)n1` [azacitidine], the “RFU, AHCTF1” value is given as 220.95 RFU.
